In general, IC50 refers to the point on the concentration scale where inhibition reaches its midpoint.

Where only a bound is given, the exact number is not on record here.

Chain of Human recombinant Histone Deacetylase 8 (HDAC8) (Q9BY41 whole entry): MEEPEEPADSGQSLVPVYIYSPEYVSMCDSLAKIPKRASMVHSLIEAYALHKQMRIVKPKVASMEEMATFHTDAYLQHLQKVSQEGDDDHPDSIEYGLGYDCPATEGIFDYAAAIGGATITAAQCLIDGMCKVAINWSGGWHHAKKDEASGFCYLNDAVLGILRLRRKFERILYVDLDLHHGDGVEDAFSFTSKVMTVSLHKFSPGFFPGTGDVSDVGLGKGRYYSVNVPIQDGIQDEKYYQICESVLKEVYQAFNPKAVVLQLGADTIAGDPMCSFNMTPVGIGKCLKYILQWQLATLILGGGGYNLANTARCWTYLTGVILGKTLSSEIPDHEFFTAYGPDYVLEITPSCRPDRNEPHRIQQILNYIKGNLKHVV

In one assay the target is Human recombinant Histone Deacetylase 8 (HDAC8) (Homo sapiens (Human), UniProt Q9BY41). Nature of the assay: HDAC8 Enzymatic Assay (HDAC-Glo I/II luminescence). Format: biochemical. The following applies: HDAC8; read-out: IC50. An outline of the steps:
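Human recombinant HDAC8 (1.5 nM final) preincubated with compound for 30 min, then reacted with 50 μM Boc-GAK(Ac)-aminoluciferin plus trypsin-containing developer for 15 min at room temperature, pH 8.0, 0.5% DMSO. Luminescence read-out; IC50 from percent control activity versus log concentration.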
With `O=C(NO)C(Cc1ccccc1)n1cc2cccc(CNC3CC3)c2n1` (stereo not shown) [Compound I-0180, 2-{7-[(Cyclopropylamino)methyl]-2H-indazol-2-yl}-N-hydroxy-3-phenylpropanamide], the 50% inhibitory concentration (IC50) was found to be 469 nM.

`O=C(NCCC1CCOCC1)c1cccc2c(C#CC3CC3)n(C(Cc3ccccc3)C(=O)NO)nc12` (stereo not shown) [Compound I-0197, 2-[1-Benzyl-2-(hydroxyamino)-2-oxethyl]-3-(cyclopropylethynyl)-N-[2-(tetrahydro-2H-pyran-4-yl)ethyl]-2H-indazole-7-carboxamide]: the IC50 is 16 nM.

`Cn1nc(C(Cc2ccccc2)C(=O)NO)c2ccc(Cl)cc21` (stereo not shown) [Compound I-0202, 2-(6-Chloro-1-methyl-1H-indazol-3-yl)-N-hydroxy-3-phenylpropanamide]: the IC50 amounted to 39 nM.

Regarding `Cn1nc(C(Cc2ccccc2)C(=O)NO)c2ccc(-c3cncnc3)cc21` (stereo not shown) [Compound I-0204, N-hydroxy-2-(1-methyl-6-pyrimidin-5-yl-1H-indazol-3-yl)-3-phenylpropanamide], the IC50 was 84 nM.

The assay is the same for the next values; noted with them: class symbols, Table 14; read-out: HDAC8 IC50.
Consider `O=C(NO)C(Cc1ccccc1)n1cc2cccc(CNC3CC3)c2n1` (stereo not shown) [Compound I-0180, 2-{7-[(Cyclopropylamino)methyl]-2H-indazol-2-yl}-N-hydroxy-3-phenylpropanamide], for which the IC50 is 200 to 500 nM.

As for `O=C(NO)C(Cc1ccccc1)n1cc2cccc(CNCC3CC3)c2n1` (stereo not shown) [Compound I-0181, 2-(7-((cyclopropylmethylamino)methyl)-2H-indazol-2-yl)-N-hydroxy-3-phenylpropanamide], the IC50 is over 500 nM.

As for `O=C(NO)C(Cc1ccccc1)n1cc2cccc(CNC3CCOCC3)c2n1` (stereo not shown) [Compound I-0182, N-hydroxy-3-phenyl-2-(7-((tetrahydro-2H-pyran-4-ylamino)methyl)-2H-indazol-2-yl)propanamide], the IC50 was over 500 nM.

For `O=C(NO)C(Cc1ccccc1)n1cc2cccc(CN3CCOCC3)c2n1` (stereo not shown) [Compound I-0183, N-hydroxy-2-(7-(morpholinomethyl)-2H-indazol-2-yl)-3-phenylpropanamide], the IC50 was in the range of 200 to 500 nM.

Consider `COC1CCN(Cc2cccc3cn(C(Cc4ccccc4)C(=O)NO)nc23)CC1` (stereo not shown) [Compound I-0184, N-hydroxy-2-(7-((4-methoxypiperidin-1-yl)methyl)-2H-indazol-2-yl)-3-phenylpropanamide], for which the IC50 fell in the range of 200 to 500 nM.

Consider `O=C(NO)C(Cc1ccccc1)n1cc2cccc(CN3CCC(N4CCOCC4)CC3)c2n1` (stereo not shown) [Compound I-0185, N-hydroxy-2-(7-((4-morpholinopiperidin-1-yl)methyl)-2H-indazol-2-yl)-3-phenylpropanamide], for which the IC50 was over 500 nM.

Take `O=C(NO)C(Cc1ccccc1)n1cc2cccc(CN3CCC4(CC3)COC4)c2n1` (stereo not shown) [Compound I-0186, 2-(7-(2-oxa-7-azaspiro[3.5]nonan-7-ylmethyl)-2H-indazol-2-yl)-N-hydroxy-3-phenylpropanamide]: the 50% inhibitory concentration (IC50) was over 500 nM.

For the compound `O=C(NO)C(Cc1ccccc1)n1cc2cccc(CN3CCC4(CCOCC4)CC3)c2n1` (stereo not shown) [Compound I-0187, 2-(7-(3-oxa-9-azaspiro[5.5]undecan-9-ylmethyl)-2H-indazol-2-yl)-N-hydroxy-3-phenylpropanamide], the IC50 was over 500 nM.

For `CN1CCN(Cc2cccc3cn(C(Cc4ccccc4)C(=O)NO)nc23)CC1` (stereo not shown) [Compound I-0188, N-hydroxy-2-(7-((4-methylpiperazin-1-yl)methyl)-2H-indazol-2-yl)-3-phenylpropanamide], the IC50 is over 500 nM.

Consider `O=C(NO)C(Cc1ccccc1)n1cc2cccc(CN3CCC(F)(F)CC3)c2n1` (stereo not shown) [Compound I-0189, 2-(7-((4,4-difluoropiperidin-1-yl)methyl)-2H-indazol-2-yl)-N-hydroxy-3-phenylpropanamide], for which the IC50 was in the range of 200 to 500 nM.

As to `O=C(NO)C(Cc1ccccc1)n1cc2cccc(CN3CCCC(F)(F)C3)c2n1` (stereo not shown) [Compound I-0190, 2-(7-((3,3-difluoropiperidin-1-yl)methyl)-2H-indazol-2-yl)-N-hydroxy-3-phenylpropanamide], the IC50 is 200 to 500 nM.

For `O=C(NO)C(Cc1ccccc1)n1cc2cccc(CN3CCC(C(F)(F)F)CC3)c2n1` (stereo not shown) [Compound I-0191, N-hydroxy-3-phenyl-2-(7-((4-(trifluoromethyl)piperidin-1-yl)methyl)-2H-indazol-2-yl)propanamide], the IC50 was over 500 nM.

Turning to `CN1CCN(Cc2cccc3cn(C(Cc4ccccc4)C(=O)NO)nc23)CC1=O` (stereo not shown) [Compound I-0192, N-hydroxy-2-(7-((4-methyl-3-oxopiperazin-1-yl)methyl)-2H-indazol-2-yl)-3-phenylpropanamide], the IC50 lay in the range of 50 to 200 nM.

Consider `O=C(NO)C(Cc1ccccc1)n1ccc2nc(Cl)ccc21` (stereo not shown) [Compound I-0193, 2-(5-chloro-1H-pyrrolo[3,2-b]pyridin-1-yl)-N-hydroxy-3-phenylpropanamide], for which the IC50 is over 500 nM.

Regarding `O=C(NO)C(Cc1ccccc1)n1ccc2cc(Cl)ncc21` (stereo not shown) [Compound I-0194, 2-(5-chloro-1H-pyrrolo[2,3-c]pyridin-1-yl)-N-hydroxy-3-phenylpropanamide], the IC50 was over 500 nM.

Consider `O=C(NO)C(Cc1ccccc1)n1ccc2cc(Cl)cnc21` (stereo not shown) [Compound I-0195, 2-(5-chloro-1H-pyrrolo[2,3-b]pyridin-1-yl)-N-hydroxy-3-phenylpropanamide], for which the IC50 is 200 to 500 nM.

For `O=C(NO)C(Cc1ccccc1)n1ccc2c(Cl)nccc21` (stereo not shown) [Compound I-0196, 2-(4-chloro-1H-pyrrolo[3,2-c]pyridin-1-yl)-N-hydroxy-3-phenylpropanamide], the IC50 fell in the range of 200 to 500 nM.

For `O=C(NCCC1CCOCC1)c1cccc2c(C#CC3CC3)n(C(Cc3ccccc3)C(=O)NO)nc12` (stereo not shown) [Compound I-0197, 2-[1-Benzyl-2-(hydroxyamino)-2-oxethyl]-3-(cyclopropylethynyl)-N-[2-(tetrahydro-2H-pyran-4-yl)ethyl]-2H-indazole-7-carboxamide], the IC50 was at most 50 nM.

As for `O=C(NO)C(Cc1ccccc1)n1cc2ccnc(-c3cncnc3)c2n1` (stereo not shown) [Compound I-0198, N-hydroxy-3-phenyl-2-(7-(pyrimidin-5-yl)-2H-pyrazolo[3,4-c]pyridin-2-yl)propanamide], the IC50 is at most 50 nM.

Turning to `Cn1nccc1-c1nccc2cn(C(Cc3ccccc3)C(=O)NO)nc12` (stereo not shown) [Compound I-0199, N-hydroxy-2-(7-(1-methyl-1H-pyrazol-5-yl)-2H-pyrazolo[3,4-c]pyridin-2-yl)-3-phenylpropanamide], the IC50 is at most 50 nM.

As to `O=C(NO)C(Cc1ccccc1)n1cc2c(n1)CCCC2` (stereo not shown) [Compound I-0200, N-hydroxy-3-phenyl-2-(4,5,6,7-tetrahydro-2H-indazol-2-yl)propanamide], the IC50 lay in the range of 200 to 500 nM.

Regarding `O=C(NO)C(Cc1ccccc1)n1ncc2c1CCCC2` (stereo not shown) [Compound I-0201, N-hydroxy-3-phenyl-2-(4,5,6,7-tetrahydro-1H-indazol-1-yl)propanamide], the IC50 was 200 to 500 nM.

As for `Cn1nccc1-c1ccc2c(C(Cc3ccccc3)C(=O)NO)nn(C)c2c1` (stereo not shown) [Compound I-0203, N-hydroxy-2-(1-methyl-6-(1-methyl-1H-pyrazol-5-yl)-1H-indazol-3-yl)-3-phenylpropanamide], the IC50 fell in the range of 50 to 200 nM.

Take `Cn1nc(C(Cc2ccccc2)C(=O)NO)c2ccc(-c3cncnc3)cc21` (stereo not shown) [Compound I-0204, N-hydroxy-2-(1-methyl-6-pyrimidin-5-yl-1H-indazol-3-yl)-3-phenylpropanamide]: the IC50 is 50 to 200 nM.

`Cn1nc(C(Cc2ccccc2)C(=O)NO)c2ccc(-c3ccncc3)cc21` (stereo not shown) [Compound I-0205, N-hydroxy-2-(1-methyl-6-(pyridin-4-yl)-1H-indazol-3-yl)-3-phenylpropanamide]: the IC50 lay within 50 to 200 nM.

`O=C(NO)C(Cc1ccccc1)n1nc2c(c1C#CC1CC1)CCCC2` (stereo not shown) [Compound I-0206, 2-(3-(cyclopropylethynyl)-4,5,6,7-tetrahydro-2H-indazol-2-yl)-N-hydroxy-3-phenylpropanamide]: the IC50 was at most 50 nM.

As for `O=C(NO)C(Cc1ccccc1)n1nc2c(-c3cncnc3)nccc2c1C#CC1CC1` (stereo not shown) [Compound I-0207, 2-(3-(cyclopropylethynyl)-7-(pyrimidin-5-yl)-2H-pyrazolo[3,4-c]pyridin-2-yl)-N-hydroxy-3-phenylpropanamide], the IC50 was at most 50 nM.

The values are drawn from patent publication US10723705B2, “Heterocyclic compounds and uses thereof” (Incyte Corporation, priority 2015, dated 2020).
